In US20100298300A1, “TRIAZOLOPYRAZINE COMPOUNDS USEFUL FOR THE TREATMENT OF DEGENERATIVE & INFLAMMATORY DISEASES” (priority 2006, published 2010):

Columns and labels:
[1] = test system: TNFα release by human PBMCs; test: Cytokine release by LPS stimulated human PBMCs (TNFα ELISA); format: cell-based; settings: PBMC, 24 h, Table 5, LPS 1 μg/mL
Protocol: For the assay PBMCs are seeded at 2.5E6 cells/mL in 160 μL in 96-well plates (Nunc). Serial dilution of the test compounds are made first in DMSO (Sigma) and then diluted 50-fold in M199 medium (Gibco) containing 1% heat-inactivated FBS. Compounds are further 1/10 diluted in the assay plates to obtain final DMSO concentration of 0.2%. Cells are preincubated with the compounds for 1 hr at 37° C., 5% CO2. Then, cells are stimulated with LPS (Escherichia coli serotype 026:B6, Cat. No. L2654, Sigma) that is added in a volume of 20 μL to a final concentration of 1 μg/mL and cells are further cultured for 24 hr. The plates are centrifuged and the supernatant is collected and stored at −80° C. until analysis of appropriate dilutions in ELISAs.
After 4 hr incubation at RT, blocking buffer is removed and plates are washed once with PBST (1×PBS with 0.05% Tween-20 (Sigma)). Then, 40 μL of sample is transferred to the ELISA plates and plates are incubated at 4° C. […] After 2 h of incubation at RT, plates are washed as described above and 35 μL/well of a 1/2000 dilution of streptavidin-HRP conjugate (Cat. No. SNN2004, Biosource) in buffer D is added. After 45 min, plates are washed as described above and incubated for 5 min with 50 μL/well BM Chemiluminescence ELISA Substrate POD (Roche). Readout is performed on the Luminoscan Ascent Luminometer (Labsystems) with an integration time of 100 msec delivering raw data (RLU: relative luminescence units). The following controls are included in the experiments, a maximal signal control, in which the cells are activated by LPS but only the 0.2% DMSO vehicle (and thus no compound) is added. […] A minimal signal control is also included in these experiments. Here, cells are not triggered. […] Where compounds are tested at 8 concentrations (1/3 serial dilution), EC50-values can be calculated by curve fitting of the means of the PIN data achieved for a compound at each test concentration.

MAPKAPK5 = molecular target: T1, MAPKAPK5 (Homo sapiens, UniProt Q8IW41); test: MAPKAP-K5 assay (FlashPlate kinase assay)
T1 sequence (Q8IW41 1-471 isoform Q8IW41-2): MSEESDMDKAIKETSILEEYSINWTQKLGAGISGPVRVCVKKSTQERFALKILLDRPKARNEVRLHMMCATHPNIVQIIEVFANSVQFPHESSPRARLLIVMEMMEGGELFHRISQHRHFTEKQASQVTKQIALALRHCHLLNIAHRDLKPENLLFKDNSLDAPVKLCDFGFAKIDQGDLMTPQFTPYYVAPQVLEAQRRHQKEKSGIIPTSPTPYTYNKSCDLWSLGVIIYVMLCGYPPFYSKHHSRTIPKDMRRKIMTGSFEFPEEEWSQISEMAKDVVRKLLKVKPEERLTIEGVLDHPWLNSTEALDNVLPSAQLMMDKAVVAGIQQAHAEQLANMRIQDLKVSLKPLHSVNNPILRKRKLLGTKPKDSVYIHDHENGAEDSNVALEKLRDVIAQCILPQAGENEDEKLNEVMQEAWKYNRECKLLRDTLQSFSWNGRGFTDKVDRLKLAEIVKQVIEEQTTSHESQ

[2] = test system: MMP1 expression by activated primary synovial fibroblasts; test: 'MMP assay': MMP1 expression by complex trigger activated synovial fibroblasts (MMP1 ELISA); format: cell-based; settings: Homo sapiens, Fibroblast; Table 3; RASFs, complex trigger, 48 hrs, MMP1 ELISA

SMILES	IC50 (MAPKAPK5) [nM]	EC50 [1] [nM]	EC50 [2] [nM]
NC(=O)c1c(F)cc(-c2cnc(Nc3ccc(N4CCOCC4)cc3)c3ncnn23)cc1F [Compound 14]	> 1000	> 1000	> 1000
NC(=O)c1nc(-c2cnc(Nc3ccc(N4CCOCC4)cc3)c3ncnn23)cs1 [Compound 61, 4-[8-(4-Morpholin-4-ylphenylamino)-[1,2,4]triazolo[1,5-a]pyrazin-5-yl]thiazole-2-carboxylic acid amide]	> 1000	> 1000	501 to 1000
FC(F)(F)CN1CCN(c2ccc(Nc3ncc(-c4cn[nH]c4)n4ncnc34)cc2)CC1 [Compound 45]	> 1000	> 1000	> 1000
CC(C)N1CCN(c2ccc(Nc3ncc(-c4csc5ccccc45)n4ncnc34)cc2)CC1 [Compound 49]	> 1000	> 1000	> 1000
CC(C)(C)N1CCN(c2ccc(Nc3ncc(-c4cn[nH]c4)n4ncnc34)cc2)CC1 [Compound 103]	501 to 1000	101 to 500	501 to 1000
c1nc2c(Nc3ccc(N4CCOCC4)cc3)ncc(-c3ccsc3)n2n1 [Compound 50, (4-Morpholin-4-ylphenyl)-(5-thiophen-3-yl-[1,2,4]triazolo[1,5-a]pyrazin-8-yl)amine]	> 1000	> 1000	101 to 500
NC(=O)c1cc(Nc2ncc(-c3cn[nH]c3)n3ncnc23)ccc1N1CCOCC1 [Compound 19, 5-(5-(1H-Pyrazol-4-yl)-[1,2,4]triazolo[1,5-a]pyrazin-8-ylamino)-2-morpholinobenzamide]	> 1000	> 1000	> 1000
c1nc2c(Nc3ccc(N4CCN(CC5CC5)CC4)nc3)ncc(-c3cn[nH]c3)n2n1 [Compound 42, [6-(4-[Cyclopropylmethyl]piperazin-1-yl)pyridin-3-yl]-[5-(1H-pyrazol-4-yl)-[1,2,4]triazolo[1,5-a]pyrazin-8-yl]amine]	> 1000	> 1000	> 1000
NC(=O)c1cc(-c2cnc(Nc3ccc(N4CCN(CC(F)(F)F)CC4)cc3)c3ncnn23)cs1 [Compound 57, 4-(8-{4-[4-(2,2,2-Trifluoroethyl)piperazin-1-yl]-phenylamino}-[1,2,4]triazolo[1,5-a]pyrazin-5-yl)thiophene-2-carboxylic acid amide]	101 to 500	> 1000	101 to 500
C[C@@H]1CN(c2ccc(Nc3ncc(-c4cn[nH]c4)n4ncnc34)cc2)[C@@H](C)CN1C [Compound 31]	101 to 500	> 1000	> 1000
OCc1n[nH]cc1-c1cnc(Nc2ccc(N3CCOCC3)cc2)c2ncnn12 [Compound 70, (4-(8-(4-Morpholinophenylamino)-[1,2,4]triazolo[1,5-a]pyrazin-5-yl)-1H-pyrazol-5-yl)methanol]	> 1000	> 1000	> 1000
O=C1NCc2cc(-c3cnc(Nc4ccc(N5CCOCC5)cc4F)c4ncnn34)ccc21 [Compound 75]	> 1000	> 1000	> 1000
O=C1NCc2cc(-c3cnc(Nc4ccc(OCCN5CCOCC5)cc4)c4ncnn34)ccc21 [Compound 65, 5-(8-(4-(2-Morpholinoethoxy)phenylamino)-[1,2,4]triazolo[1,5-a]pyrazin-5-yl)isoindolin-1-one]	101 to 500	> 1000	101 to 500
CN1CCN(c2ccc(Nc3ncc(-c4cc[nH]c(=O)c4)n4ncnc34)cc2)CC1 [Compound 4, 4-(8-(4-(4-methylpiperazin-1-yl)phenylamino)-[1,2,4]triazolo[1,5a]pyrazin-5-yl)pyridin-2(1H)-one]	> 1000	> 1000	> 1000
CC(C)N1CCN(c2ccc(Nc3ncc(-c4csc5c(C(N)=O)cccc45)n4ncnc34)cc2)CC1 [Compound 81, 3-{8-[4-(4-Isopropylpiperazin-1-yl)phenylamino]-[1,2,4]triazolo[1,5-a]pyrazin-5-yl}benzo[b]thiophene-7-carboxylic acid amide]	> 1000	> 1000	> 1000
c1nc2c(Nc3ccc(N4CCNCC4)cc3)ncc(-c3cn[nH]c3)n2n1 [Compound 40]	501 to 1000	501 to 1000	> 1000
CN1CCN(c2ccc(Nc3ncc(-c4ccc(C(N)=O)c(F)c4)n4ncnc34)cc2)CC1 [Compound 7]	> 1000	> 1000	> 1000
Cc1[nH]ncc1-c1cnc(Nc2ccc(N3CCOCC3)cc2)c2ncnn12 [Compound 12, 5-(5-Methyl-1H-pyrazol-4-yl)-N-(4-morpholinophenyl)-[1,2,4]triazolo[1,5-a]pyrazin-8-amine]	501 to 1000	> 1000	501 to 1000
NC(=O)c1cc(-c2cnc(Nc3ccc(C4CCN(CC(F)(F)F)CC4)cc3)c3ncnn23)cs1 [Compound 63, 4-(8-{4-[1-(2,2,2-Trifluoroethyl)piperidin-4-yl]phenylamino}-[1,2,4]triazolo[1,5-a]pyrazin-5-yl)thiophene-2-carboxylic acid amide]	> 1000	> 1000	101 to 500
CN1CCN(c2ccc(Nc3ncc(-c4csc(C(N)=O)c4)n4ncnc34)cc2)CC1 [Compound 6, 4-{8-[4-(4-Methyl-piperazin-1-yl)-phenylamino]-[1,2,4]triazolo[1,5-a]pyrazin-5-yl}-thiophene-2-carboxylic acid amide]	1 to 100	> 1000	101 to 500

The next lines start with results.

IC50 (MAPKAPK5) [nM]	SMILES	EC50 [1] [nM]	EC50 [2] [nM]
101 to 500	C[C@@H]1CN(c2ccc(Nc3ncc(-c4csc(C(N)=O)c4)n4ncnc34)cc2)[C@@H](C)CN1C [Compound 32]	501 to 1000	501 to 1000
> 1000	CC(=O)c1ccc(-c2cnc(Nc3ccc(N4CCOCC4)cc3)c3ncnn23)s1 [Compound 69]	> 1000	> 1000
> 1000	CC(C)N1CCN(c2ccc(Nc3ncc(-c4cc(C(N)=O)co4)n4ncnc34)cc2)CC1 [Compound 30]	> 1000	> 1000
501 to 1000	NC(=O)CN1CCC(c2ccc(Nc3ncc(-c4cn[nH]c4)n4ncnc34)cc2)CC1 [Compound 169, 2-(4-{4-[5-(1H-Pyrazol-4-yl)-[1,2,4]triazolo[1,5-a]pyrazin-8-ylamino]phenyl}-piperidin-1-yl)acetamide]	> 1000	> 1000
101 to 500	NC(=O)c1cc(-c2cnc(Nc3ccc(OCCN4CCOCC4)cc3)c3ncnn23)cs1 [Compound 21, 4-(8-(4-(2-Morpholinoethoxy)phenylamino)-[1,2,4]triazolo[1,5-a]pyrazin-5-yl)thiophene-2-carboxamide]	> 1000	101 to 500
> 1000	NC(=O)c1coc(-c2cnc(Nc3ccc(N4CCOCC4)cc3)c3ncnn23)c1 [Compound 29, 5-(8-(4-Morpholinophenylamino)-[1,2,4]triazolo[1,5-a]pyrazin-5-yl)furan-3-carboxamide]	> 1000	> 1000
501 to 1000	NC(=O)c1cc(-c2cnc(Nc3ccc(N4CCN(CC(F)(F)F)CC4)nc3)c3ncnn23)cs1 [Compound 56, 4-(8-{6-[4-(2,2,2-Trifluoroethyl)piperazin-1-yl]-pyridin-3-ylamino}-[1,2,4]triazolo[1,5-a]pyrazin-5-yl)thiophene-2-carboxylic acid amide]	> 1000	501 to 1000
101 to 500	O=C1NCc2cc(-c3cnc(NC4CCCCC4)c4ncnn34)ccc21 [Compound 115]	> 1000	> 1000
> 1000	CNC(=O)c1nc(-c2cnc(Nc3ccc(N4CCOCC4)cc3)c3ncnn23)cs1 [Compound 73, 4-[8-(4-Morpholin-4-yl-phenylamino)-[1,2,4]triazolo[1,5-a]pyrazin-5-yl]-thiazole-2-carboxylic acid methylamide]	> 1000	> 1000
